# Read-outs that look alike come from different tables or passages of the source.
# Tests used:
# [1] = Mechanical stability: dry grinding, wet grinding, tableting (XRPD); type: physicochemical; conditions: for crystal form of the solid (XRPD): wet grinding, and tableting
# Method: Dry grinding: approximately 10 mg of the starting sample was ground for 3 minutes in a mortar, and then subjected to XRPD testing.
# Wet grinding: approximately 10 mg of the starting sample was ground with 1 to 2 drops of solvent for 3 minutes in a mortar, and then subjected to XRPD testing.
# Tableting experiment: approximately 10 mg of the starting sample was compressed at 20 MPa for 3 minutes, and then subjected to XRPD testing.
# [2] = Solubility of crystal forms in buffers, biorelevant media and water (HPLC, XRPD of residual solid); type: physicochemical; conditions: for pH (24 h): 5 mg/mL suspension stirred at 37°C, pH of the solution at 24 h; for Solubility at 37°C (mg/mL) 2 h: 120 min; for Solubility at 37°C (mg/mL) 24 h / solubility: 1440 min; for solubility at 2 h: read-out: Solubility at 37°C (mg/mL) 2 h
# Method: The solubility of the two crystal forms at 2 hours and 24 hours and the pH of the solution at 24 hours were tested. The solid was filtered, and the resulting solid was tested for XRPD.
# [3] = Hygroscopicity by dynamic vapor sorption (DVS); type: physicochemical; conditions: for hygroscopic weight gain: 80% RH, 25°C; for hygroscopicity evaluation: DVS, based on weight gain at 80% RH
# Method: Samples are analyzed for hygroscopicity using Intrinsic DVS ([…], UK). Approximately 10 to 30 mg of sample is used for testing. The testing chamber is controlled at a temperature of 25 ± 1°C with the specific testing parameters shown below: […]
# [4] = Physicochemical stability of crystal forms (HPLC purity, XRPD); conditions: for change in the crystal form after stability testing: all stability conditions
# [5] = Dry grinding, 3 minutes in a mortar, no solvent
# [6] = Tableting, 20 MPa for 3 minutes, solvent EA
# [7] = Wet grinding, solvent EtOH, 3 minutes in a mortar
# [8] = Wet grinding, solvent Water, 3 minutes in a mortar
# [9] = after grinding and tableting experiments, versus starting sample
# [10] = after wet grinding and tableting
# [11] = FeSSIF, stirring at 37°C for 24 hours
# [12] = XRPD of residual solid after stirring in FaSSIF at 37°C for 24 hours
# [13] = XRPD of residual solid after stirring in FeSSIF at 37°C for 24 hours
# [14] = XRPD of residual solid after stirring in SGF at 37°C for 24 hours
# [15] = XRPD of residual solid after stirring in Water at 37°C for 24 hours
# [16] = XRPD of residual solid after stirring in pH 1.2 buffer at 37°C for 24 hours
# [17] = XRPD of residual solid after stirring in pH 3.0 buffer at 37°C for 24 hours
# [18] = XRPD of residual solid after stirring in pH 4.5 buffer at 37°C for 24 hours
# [19] = XRPD of residual solid after stirring in pH 6.8 buffer at 37°C for 24 hours
# [20] = XRPD of residual solid after stirring in pH 7.4 buffer at 37°C for 24 hours
smiles,measurement,setting,value
"COc1cc2nn(C3CC4(CCN(C(=O)C5CCN(c6ccc7c(c6)C(=O)N(C6CCC(=O)NC6=O)C7=O)CC5)CC4)C3)cc2cc1NC(=O)c1cccc(C(F)(F)F)n1 (single isomer, unassigned) [crystal form A]",Solid color,[1]; [5],"Slightly deepened, yellow"
same,XRPD results,[1]; [5],Crystal form A (low degree of crystallinity)
same,Solid color,[1]; [6],"Slightly deepened, yellow"
same,XRPD results,[1]; [6],Crystal form A
same,Solid color,[1]; [7],"Slightly deepened, yellow"
same,XRPD results,[1]; [7],Crystal form A
same,Solid color,[1]; [8],"Slightly deepened, yellow"
same,XRPD results,[1]; [8],Crystal form A
same,degree of crystallinity of the solid,[1]; after dry grinding,reduction in the degree of crystallinity
same,crystal form of the solid (XRPD),[1]; after dry grinding,no change in the crystal form
same,Solid color,[1]; [9],slightly darker
same,degree of crystallinity of the solid,[1]; [10],almost no change in the degree of crystallinity
same,pH (24 h),[2]; FaSSIF,6.570
same,Solubility at 37°C (mg/mL) 2 h,"[2]; FaSSIF, 37°C",0.00461 mg/mL
same,Solubility at 37°C (mg/mL) 24 h,"[2]; FaSSIF, 37°C, 24 h",0.00285 mg/mL
same,solubility,[2]; [11],approximately 0.004 mg/mL
same,pH (24 h),[2]; FeSSIF,5.032
same,Solubility at 37°C (mg/mL) 2 h,"[2]; FeSSIF, 37°C",0.00391 mg/mL
same,Solubility at 37°C (mg/mL) 24 h,"[2]; FeSSIF, 37°C, 24 h",0.00414 mg/mL
same,pH (24 h),[2]; SGF,1.225
same,pH (24 h),[2]; Water,7.311
same,Solubility at 37°C (mg/mL) 24 h,"[2]; Water, 37°C, 24 h",0.00075 mg/mL
same,Crystal form,[2]; [12],Crystal form A
same,Crystal form,[2]; [13],Crystal form A
same,Crystal form,[2]; [14],Crystal form A
same,Crystal form,[2]; [15],Crystal form A
same,Crystal form,[2]; [16],Crystal form A
same,Crystal form,[2]; [17],Crystal form A
same,Crystal form,[2]; [18],Crystal form A
same,Crystal form,[2]; [19],Crystal form A
same,Crystal form,[2]; [20],Crystal form A
same,solubility at 24 h,"[2]; fassif, stirring at 37°C for 24 hours, read-out: solubility",~0.004 mg/mL
same,pH (24 h),[2]; pH 1.2 buffer,1.214
same,pH (24 h),[2]; pH 3.0 buffer,3.078
same,pH (24 h),[2]; pH 4.5 buffer,4.584
same,Solubility at 37°C (mg/mL) 2 h,"[2]; pH 4.5 buffer, 37°C",0.00026 mg/mL
same,pH (24 h),[2]; pH 6.8 buffer,6.833
same,pH (24 h),[2]; pH 7.4 buffer,7.428
same,solubility at 2 h,"[2]; water, 37°C",0.00052 mg/mL
same,hygroscopic weight gain,[3],2.213%
same,hygroscopicity evaluation,[3],hygroscopic
same,crystal form after DVS testing,[3],no change in the crystal form
same,Purity (%),"[4]; 25°C/60% RH, open, 1 week",96.38%
same,XRPD,"[4]; 25°C/60% RH, open, 1 week",Unchanged
same,Purity (%),"[4]; 40°C/75% RH, open, 1 week",96.39%
same,XRPD,"[4]; 40°C/75% RH, open, 1 week",Unchanged
same,Purity (%),"[4]; 60°C, closed, 1 week",96.40%
same,XRPD,"[4]; 60°C, closed, 1 week",Unchanged
same,Purity (%),[4]; Initial,96.41%
same,XRPD,[4]; Initial,Crystal form A
same,Purity (%),"[4]; Light, closed, 10 days",96.41%
same,XRPD,"[4]; Light, closed, 10 days",Unchanged
same,Purity (%),"[4]; Light, control, 10 days",96.42%
same,XRPD,"[4]; Light, control, 10 days",Unchanged
same,change in the crystal form after stability testing,[4],no change in the crystal form
same,degradation,"[4]; all stability conditions (60°C, 25°C/60% RH, 40°C/75% RH 1 week; light 10 days)",no significant degradation
"COc1cc2nn(C3CC4(CCN(C(=O)C5CCN(c6ccc7c(c6)C(=O)N(C6CCC(=O)NC6=O)C7=O)CC5)CC4)C3)cc2cc1NC(=O)c1cccc(C(F)(F)F)n1 (single isomer, unassigned) [crystal form I]",Solid color,[1]; [5],"Yellow, essentially no change"
same,XRPD results,[1]; [5],Crystal form I (low degree of crystallinity)
same,Solid color,[1]; [6],"Yellow, essentially no change"
same,XRPD results,[1]; [6],Crystal form I
same,Solid color,[1]; [7],"Yellow, essentially no change"
same,XRPD results,[1]; [7],Crystal form I
same,Solid color,[1]; [8],"Yellow, essentially no change"
same,XRPD results,[1]; [8],Crystal form I
same,degree of crystallinity of the solid,[1]; after dry grinding,reduction in the degree of crystallinity
same,crystal form of the solid (XRPD),[1]; after dry grinding,no change in the crystal form
same,Solid color,[1]; [9],essentially no change in the solid color
same,degree of crystallinity of the solid,[1]; [10],almost no change in the degree of crystallinity
same,pH (24 h),[2]; FaSSIF,6.501
same,Solubility at 37°C (mg/mL) 2 h,"[2]; FaSSIF, 37°C",0.00141 mg/mL
same,solubility,[2]; [11],approximately 0.01 mg/mL
same,pH (24 h),[2]; FeSSIF,5.085
same,Solubility at 37°C (mg/mL) 24 h,"[2]; FeSSIF, 37°C, 24 h",0.01099 mg/mL
same,pH (24 h),[2]; SGF,1.266
same,pH (24 h),[2]; Water,6.749
same,Solubility at 37°C (mg/mL) 2 h,"[2]; Water, 37°C",0.00089 mg/mL
same,Solubility at 37°C (mg/mL) 24 h,"[2]; Water, 37°C, 24 h",0.00025 mg/mL
same,Crystal form,[2]; [12],Crystal form I
same,Crystal form,[2]; [13],Crystal form I
same,Crystal form,[2]; [14],Crystal form I
same,Crystal form,[2]; [15],Crystal form I
same,Crystal form,[2]; [16],Crystal form I
same,Crystal form,[2]; [17],Crystal form I
same,Crystal form,[2]; [18],Crystal form I
same,Crystal form,[2]; [19],Crystal form I
same,Crystal form,[2]; [20],Crystal form I
same,solubility at 2 h,"[2]; buffer, pH 1.2, pH 1.2 buffer, 37°C",0.00084 mg/mL
same,solubility at 24 h,"[2]; buffer, pH 1.2, pH 1.2 buffer, 37°C, 24 h, read-out: Solubility at 37°C (mg/mL) 24 h",0.00081 mg/mL
same,solubility at 2 h,"[2]; buffer, pH 3, pH 3.0 buffer, 37°C",0.00048 mg/mL
same,solubility at 24 h,"[2]; buffer, pH 3, pH 3.0 buffer, 37°C, 24 h, read-out: Solubility at 37°C (mg/mL) 24 h",0.00077 mg/mL
same,solubility at 2 h,"[2]; buffer, pH 4.5, pH 4.5 buffer, 37°C",0.00019 mg/mL
same,solubility at 24 h,"[2]; buffer, pH 4.5, pH 4.5 buffer, 37°C, 24 h, read-out: Solubility at 37°C (mg/mL) 24 h",0.00087 mg/mL
same,solubility at 2 h,"[2]; buffer, pH 6.8, pH 6.8 buffer, 37°C",0.00046 mg/mL
same,solubility at 24 h,"[2]; buffer, pH 6.8, pH 6.8 buffer, 37°C, 24 h, read-out: Solubility at 37°C (mg/mL) 24 h",0.00084 mg/mL
same,solubility at 2 h,"[2]; buffer, pH 7.4, pH 7.4 buffer, 37°C",0.00101 mg/mL
same,solubility at 24 h,"[2]; buffer, pH 7.4, pH 7.4 buffer, 37°C, 24 h, read-out: Solubility at 37°C (mg/mL) 24 h",0.00079 mg/mL
same,solubility at 24 h,"[2]; fassif, 37°C, 24 h, read-out: Solubility at 37°C (mg/mL) 24 h",0.00148 mg/mL
same,solubility at 2 h,"[2]; fessif, 37°C",0.004 mg/mL
same,pH (24 h),[2]; pH 1.2 buffer,1.234
same,pH (24 h),[2]; pH 3.0 buffer,3.145
same,pH (24 h),[2]; pH 4.5 buffer,4.583
same,pH (24 h),[2]; pH 6.8 buffer,6.805
same,pH (24 h),[2]; pH 7.4 buffer,7.439
same,solubility at 2 h,"[2]; sgf, 37°C",0.00158 mg/mL
same,solubility at 24 h,"[2]; sgf, 37°C, 24 h, read-out: Solubility at 37°C (mg/mL) 24 h",0.00376 mg/mL
same,hygroscopic weight gain,[3],0.3629%
same,hygroscopicity evaluation,[3],slightly hygroscopic
same,crystal form after DVS testing,[3],no change in the crystal form
same,Purity (%),"[4]; 25°C/60% RH, open, 1 week",98.96%
same,XRPD,"[4]; 25°C/60% RH, open, 1 week",Unchanged
same,Purity (%),"[4]; 40°C/75% RH, open, 1 week",98.96%
same,XRPD,"[4]; 40°C/75% RH, open, 1 week",Unchanged
same,Purity (%),"[4]; 60°C, closed, 1 week",98.80%
same,XRPD,"[4]; 60°C, closed, 1 week",Unchanged
same,Purity (%),[4]; Initial,98.97%
same,Purity (%),"[4]; Light, closed, 10 days",98.96%
same,XRPD,"[4]; Light, closed, 10 days",Unchanged
same,Purity (%),"[4]; Light, control, 10 days",98.97%
same,XRPD,"[4]; Light, control, 10 days",Unchanged
same,change in the crystal form after stability testing,[4],no change in the crystal form
same,degradation,[4]; closed stability chamber at 60°C for 1 week,0.17%
same,degradation,"[4]; other stability conditions (25°C/60% RH, 40°C/75% RH 1 week; light 10 days)",no significant degradation
